Row | melting point [°C] | Structure (SMILES)
1 | 282 to 284 | CC(C)NCc1ccc(-c2cc3c(Nc4ccc(F)c(Cl)c4)ncnc3[nH]2)cc1 [Example 8d, (3-Chloro-4-fluoro-phenyl)-{6-[4-(iso-propylamino-methyl)-phenyl]-7H-pyrrolo[2,3-d]pyrimidin-4-yl}-amine]
2 | 227 to 229 | CN1CCN(Cc2ccc(-c3cc4c(Nc5cccc(Cl)c5)ncnc4[nH]3)cc2)CC1.Cl.Cl
3 | 230 to 235 | O=C(CCN1CCCCC1)NCc1ccc(-c2cc3c(Nc4ccc(F)c(Cl)c4)ncnc3[nH]2)cc1 [Example 61, N-{4-[4-(3-Chloro-4-fluoro-phenylamino)-7H-pyrrolo[2,3-d]pyrimidin-6-yl]-benzyl}-3-piperidin-1-yl-propionamide]
4 | 196 to 198 | C[C@@H](Nc1ncnc2[nH]c(-c3ccc(CNC(=O)CN4CCCC4)cc3)cc12)c1ccccc1 [Example 41, N-{4-[4-((R)-1-Phenyl-ethylamino)-7H-pyrrolo[2,3-d]pyrimidin-6-yl]-benzyl}-2-pyrrolidin-1-yl-acetamide]
5 | 265 to 267 | c1ccc(COc2ccc(Nc3ncnc4[nH]c(-c5ccc(CN6CCCC6)cc5)cc34)cc2)cc1 [Example 23, (4-Benzyloxy-phenyl)-[6-(4-pyrrolidin-1-ylmethyl-phenyl)-7H-pyrrolo[2,3-d]pyrimidin-4-yl]-amine]
6 | 258 to 260 | Clc1ccc(Cl)c(CNc2ncnc3[nH]c(-c4ccc(CN5CCCCC5)cc4)cc23)c1 [Example 100, (2,5-Dichloro-benzyl)-[6-(4-piperidin-1-ylmethyl-phenyl)-7H-pyrrolo[2,3-d]pyrimidin-4-yl]-amine]
7 | 263 to 264 | COc1ccc(Nc2ncnc3[nH]c(-c4ccc(CN5CCOCC5)cc4)cc23)cn1 [Example 111, (6-Methoxy-pyridin-3-yl)-[6-(4-morpholin-4-ylmethyl-phenyl)-7H-pyrrolo[2,3-d]pyrimidin-4-yl]-amine]
8 | 257 to 258 | CCN(CC)Cc1ccc(-c2cc3c(NCc4ccccc4Cl)ncnc3[nH]2)cc1 [Example 96, (2-Chloro-benzyl)-[6-(4-diethylaminomethyl-phenyl)-7H-pyrrolo[2,3-d]pyrimidin-4-yl]-amine]
9 | 276 to 279 | Clc1ccccc1CNc1ncnc2[nH]c(-c3ccc(CN4CCOCC4)cc3)cc12 [Example 93, (2-Chloro-benzyl)-[6-(4-morpholin-4-ylmethyl-phenyl)-7H-pyrrolo[2,3-d]pyrimidin-4-yl]-amine]
10 | 245 to 247 | CCN1CCN(CC(=O)NCc2ccc(-c3cc4c(Nc5ccc(F)c(Cl)c5)ncnc4[nH]3)cc2)CC1 [Example 47, N-{4-[4-(3-Chloro-4-fluoro-phenylamino)-7H-pyrrolo[2,3-d]pyrimidin-6-yl]-benzyl}-2-(4-ethyl-piperazin-1-yl)-acetamide]
11 | 140 | C[C@@H](Nc1ncnc2[nH]c(-c3ccc(CNC(=O)CCN4CCCCC4)cc3)cc12)c1ccccc1 [Example 54, N-{4-[4-((R)-1-Phenyl-ethylamino)-7H-pyrrolo[2,3-d]pyrimidin-6-yl]-benzyl}-3-piperidin-1-yl-propionamide]
12 | 232 to 233 | C[C@@H](Nc1ncnc2[nH]c(-c3ccc(CN4CCN(C)CC4)cc3)cc12)c1ccc(Cl)cc1 [Example 77, [(R)-1-(4-Chloro-phenyl)-ethyl]-{6-[4-(4-methyl-piperazin-1-ylmethyl)-phenyl]-7H-pyrrolo[2,3-d]pyrimidin-4-yl}-amine]
13 | 266 to 268 | Clc1ccc(Cl)c(CNc2ncnc3[nH]c(-c4ccc(CN5CCCC5)cc4)cc23)c1 [Example 103, (2,5-Dichloro-benzyl)-[6-(4-pyrrolidin-1-ylmethyl-phenyl)-7H-pyrrolo[2,3-d]pyrimidin-4-yl]-amine]
14 | 231 to 233 | CCN(CC)Cc1ccc(-c2cc3c(NCc4cccc(Cl)c4)ncnc3[nH]2)cc1 [Example 87, (3-Chloro-benzyl)-[6-(4-diethylaminomethyl-phenyl)-7H-pyrrolo[2,3-d]pyrimidin-4-yl]-amine]
15 | 108 to 110 | C[C@@H](Nc1ncnc2[nH]c(-c3cccc(CN4CCCCC4)c3)cc12)c1ccccc1 [Example 30, ((R)-1-Phenyl-ethyl)-[6-(3-piperidin-1-ylmethyl-phenyl)-7H-pyrrolo[2,3-d]pyrimidin-4-yl]-amine]
16 | 238 to 240 | Fc1ccc(Nc2ncnc3[nH]c(-c4cccc(CN5CCCC5)c4)cc23)cc1Cl [Example 36, (3-Chloro-4-fluoro-phenyl)-[6-(3-pyrrolidin-1-ylmethyl-phenyl)-7H-pyrrolo[2,3-d]pyrimidin-4-yl]-amine]
17 | 211 to 212 | COc1cc(CNc2ncnc3[nH]c(-c4ccc(CN5CCN(C)CC5)cc4)cc23)ccn1 [Example 125, (2-Methoxy-pyridin-4-ylmethyl)-{6-[4-(4-methyl-piperazin-1-ylmethyl)-phenyl]-7H-pyrrolo[2,3-d]pyrimidin-4-yl}-amine]
18 | 231 to 233 | CCN1CCN(Cc2ccc(-c3cc4c(NCc5cccc(OC)c5)ncnc4[nH]3)cc2)CC1 [Example 107c, {6-[4-(4-Ethyl-piperazin-1-ylmethyl)-phenyl]-7H-pyrrolo[2,3-d]pyrimidin-4-yl}-(3-methoxy-benzyl)-amine]
19 | 278 to 280 | Cl.Clc1cccc(Nc2ncnc3[nH]c(-c4ccc(CN5CCOCC5)cc4)cc23)c1

The next lines start with the compound.

Row | Structure (SMILES) | melting point [°C]
20 | C[C@@H](Nc1ncnc2[nH]c(-c3ccc(CNC(=O)c4ccccn4)cc3)cc12)c1ccccc1 [Example 57, Pyridine-2-carboxylic acid 4-[4-((R)-1-phenyl-ethylamino)-7H-pyrrolo[2,3-d]pyrimidin-6-yl]-benzylamide] | 221 to 223
21 | C[C@@H](Nc1ncnc2[nH]c(-c3ccc(CNC4CCOCC4)cc3)cc12)c1ccccc1 [Example 16b, ((R)-1-Phenyl-ethyl)-(6-{4-[(tetrahydro-pyran-4-ylamino)-methyl]-phenyl}-7H-pyrrolo[2,3-d]pyrimidin-4-yl)-amine] | 253 to 255
22 | CN(C)CC(=O)NCc1ccc(-c2cc3c(Nc4ccc(F)c(Cl)c4)ncnc3[nH]2)cc1 [Example 46, N-{4-[4-(3-Chloro-4-fluoro-phenylamino)-7H-pyrrolo[2,3-d]pyrimidin-6-yl]-benzyl}-2-dimethylamino-acetamide] | 278 to 282
23 | CC1CN(Cc2ccc(-c3cc4c(Nc5ccc(OCc6ccccc6)cc5)ncnc4[nH]3)cc2)CC(C)N1 (centres unmarked) [Example 24, (4-Benzyloxy-phenyl)-{6-[4-(3,5-dimethyl-piperazin-1-ylmethyl)-phenyl]-7H-pyrrolo[2,3-d]pyrimidin-4-yl}-amine] | 269 to 271
24 | CCN(CC)Cc1ccc(-c2cc3c(Nc4ccc(OCc5ccccc5)cc4)ncnc3[nH]2)cc1 [Example 21, (4-Benzyloxy-phenyl)-[6-(4-diethylaminomethyl-phenyl)-7H-pyrrolo[2,3-d]pyrimidin-4-yl]-amine] | 271 to 273
25 | CN(C)CC(=O)NCc1ccc(-c2cc3c(Nc4ccc(OCc5ccccc5)cc4)ncnc3[nH]2)cc1 [Example 51, N-{4-[4-(4-Benzyloxy-phenylamino)-7H-pyrrolo[2,3-d]pyrimidin-6-yl]-benzyl}-2-dimethylamino-acetamide] | 233 to 235
26 | CN(C)Cc1ccc(-c2cc3c(Nc4ccc(OCc5ccccc5)cc4)ncnc3[nH]2)cc1 [Example 17, (4-Benzyloxy-phenyl)-[6-(4-dimethylaminomethyl-phenyl)-7H-pyrrolo[2,3-d]pyrimidin-4-yl]-amine] | 272 to 274
27 | C[C@@H](Nc1ncnc2[nH]c(-c3ccc(CNC(=O)CN(C)C)cc3)cc12)c1ccccc1 [Example 44, 2-Dimethylamino-N-{4-[4-((R)-1-phenyl-ethyl-amino)-7H-pyrrolo[2,3-d]pyrimidin-6-yl]-benzyl}-acetamide] | 263 to 266
28 | CC1CN(Cc2ccc(-c3cc4c(N[C@H](C)c5ccccc5)ncnc4[nH]3)cc2)CC(C)N1 (stereo partly drawn) [Example 16, {6-[4-(3,5-Dimethyl-piperazin-1-ylmethyl)-phenyl]-7H-pyrrolo[2,3-d]pyrimidin-4-yl}-((R)-1-phenyl-ethyl)-amine] | 208 to 210
29 | CCN(CC)CCC(=O)NCc1ccc(-c2cc3c(Nc4ccc(F)c(Cl)c4)ncnc3[nH]2)cc1 [Example 58, N-{4-[4-(3-Chloro-4-fluoro-phenylamino)-7H-pyrrolo[2,3-d]pyrimidin-6-yl]-benzyl}-3-diethylamino-propionamide] | 229 to 232
30 | CC1CN(Cc2cccc(-c3cc4c(N[C@H](C)c5ccccc5)ncnc4[nH]3)c2)CC(C)N1 (stereo partly drawn) [Example 32, {6-[3-(3,5-Dimethyl-piperazin-1-ylmethyl)-phenyl]-7H-pyrrolo[2,3-d]pyrimidin-4-yl}-((R)-1-phenyl-ethyl)-amine] | 128 to 130
31 | C[C@@H](Nc1ncnc2[nH]c(-c3ccc(CNC(=O)CCCN(C)C)cc3)cc12)c1ccccc1 [Example 56, 4-Dimethylamino-N-{4-[4-((R)-1-phenyl-ethyl-amino)-7H-pyrrolo[2,3-d]pyrimidin-6-yl]-benzyl}-butyramide] | 195 to 203
32 | C[C@@H](Nc1ncnc2[nH]c(-c3cccc(CN4CCOCC4)c3)cc12)c1ccccc1 [Example 31, [6-(3-Morpholin-4-ylmethyl-phenyl)-7H-pyrrolo[2,3-d]pyrimidin-4-yl]-((R)-1-phenyl-ethyl)-amine] | 242 to 243
33 | COc1cc(CNc2ncnc3[nH]c(-c4ccc(CN(C)C)cc4)cc23)ccn1 [Example 124, (2-Methoxy-pyridin-4-ylmethyl)-{6-[4-(dimethylamino-methyl)-phenyl]-7H-pyrrolo[2,3-d]pyrimidin-4-yl}-amine] | 210 to 211
34 | CCN(CC)CCC(=O)NCc1ccc(-c2cc3c(N[C@H](C)c4ccccc4)ncnc3[nH]2)cc1 [Example 55, 3-Diethylamino-N-{4-[4-((R)-1-phenyl-ethyl-amino)-7H-pyrrolo[2,3-d]pyrimidin-6-yl]-benzyl}-propionamide] | 175 to 177
35 | C[C@@H](Nc1ncnc2[nH]c(-c3ccc(CN(CCO)CCO)cc3)cc12)c1ccccc1 [Example 82, 2-((2-Hydroxy-ethyl)-{4-[4-((R)-1-phenyl-ethylamino)-7H-pyrrolo[2,3-d]pyrimidin-6-yl]-benzyl}-amino)-ethanol] | 194 to 197
